Assay results reported in patent US9919034B2, “Methods of treating and prophylactically protecting mammalian patients infected by viruses classified in Baltimore group V” (priority 2014, dated 2018).

Tested on: Rabies virus
Assay type: cell-based

ranpirnase
activity against rabies (SI, FIG. 1): extraordinarily active
